Non-standard residues stand in square brackets, D forms with d. Residues, ends and D or L forms follow the SMILES beside them.
Assays:
[1] = test system: mouse HCC cells; assay: Apoptosis in mouse liver tumors (H&E, TUNEL, activated caspase 3); format: in vivo; settings: treated tumor-bearing mice
Description: Furthermore, these apoptotic tumor cells were not apparent in FoxM1 deficient livers in dsRNA (CKO) Mx-Cre Foxm1−/− mice (FIG. 3E-3G).
(§1) To measure apoptosis in mouse livers we used the Terminal Deoxynucleotidyl Transferase-mediated dUTP-biotin Nick End Labeling (TUNEL) assay on liver sections using the ApoTag Fluorescein in situ apoptosis detection kit from Intergen (Purchase, N.Y.) according to the manufacturer's recommendations. The mean number (±SD) of TUNEL- or DAPI-positive hepatocyte nuclei was calculated per 1000 cells or 200× field by counting the number of positive hepatocyte nuclei using five different 200× fields of liver tumor sections from male mice at the indicated times of DEN/PB exposure.

[2] = test system: HCC cells of ARF -/- Rosa 26 FoxM1b TG mice; assay: Apoptosis of HCC in ARF -/- Rosa26 FoxM1b TG mice (H&E, TUNEL); format: in vivo, mouse
Procedure: In order to determine the effective concentration of dose of the ARF peptide for efficient liver delivery, mice were subjected to IP injection of either 0.1, 1, 5 or 10 mg/Kg body weight of TMR fluorescently tagged WT ARF 26-44 peptide, and were sacrificed 24 hours later, after which their livers were dissected, formalin fixed and paraffin embedded. Liver sections were treated with Xylene to remove paraffin wax and then examined by fluorescent microscopy for red peptide fluorescence. This dose response curve determined that IP injection of either equal or greater than 5 mg/Kg body weight of TMR-fluorescently labeled WT ARF 26-44 peptide was detectable in cytoplasm and nucleolus of hepatocytes and in hepatic mesenchymal cells at 24 hours after injection (FIG. 4G). […]
as §1, with “exposure. […]” for “exposure.”

[3] = molecular target: T1, FoxM1b (Homo sapiens, UniProt Q08050); settings: cited from earlier work
T1 sequence (Q08050 1-748 isoform Q08050-2): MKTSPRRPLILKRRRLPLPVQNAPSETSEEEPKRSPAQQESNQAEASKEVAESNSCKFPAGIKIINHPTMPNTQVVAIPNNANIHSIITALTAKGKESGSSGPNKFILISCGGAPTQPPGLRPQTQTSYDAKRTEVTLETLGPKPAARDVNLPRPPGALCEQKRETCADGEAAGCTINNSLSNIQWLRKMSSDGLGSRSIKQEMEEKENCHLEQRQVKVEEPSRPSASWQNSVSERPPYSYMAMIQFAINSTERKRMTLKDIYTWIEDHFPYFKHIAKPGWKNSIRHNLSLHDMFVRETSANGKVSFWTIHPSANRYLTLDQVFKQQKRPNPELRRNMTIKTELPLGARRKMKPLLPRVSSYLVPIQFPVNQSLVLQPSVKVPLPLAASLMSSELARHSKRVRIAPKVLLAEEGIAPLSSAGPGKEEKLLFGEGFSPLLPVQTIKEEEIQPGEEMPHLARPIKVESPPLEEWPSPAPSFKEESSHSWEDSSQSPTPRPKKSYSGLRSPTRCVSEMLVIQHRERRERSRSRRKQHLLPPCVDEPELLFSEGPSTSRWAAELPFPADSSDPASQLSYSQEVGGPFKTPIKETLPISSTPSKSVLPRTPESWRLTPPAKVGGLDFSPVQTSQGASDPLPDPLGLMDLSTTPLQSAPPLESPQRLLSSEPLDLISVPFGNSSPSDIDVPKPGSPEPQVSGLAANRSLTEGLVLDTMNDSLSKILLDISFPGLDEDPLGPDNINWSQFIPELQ

Molecule | activated caspase 3 staining in adjacent normal liver tissue [1] | red staining cells in surrounding normal liver tissue (H&E) [1] | TUNEL-positive cells in adjacent normal liver tissue [2] | inhibition of FoxM1B activity [3]
CC(C)C[C@H](NC(=O)[C@H](C)NC(=O)[C@H](CS)NC(=O)[C@H](CO)NC(=O)[C@H](C)NC(=O)[C@@H](NC(=O)[C@H](CCCNC(=N)N)NC(=O)[C@@H]1CCCN1C(=O)[C@H](CCCNC(=N)N)NC(=O)[C@H](CCCNC(=N)N)NC(=O)[C@H](CO)NC(=O)[C@H](CCCNC(=N)N)NC(=O)[C@@H](NC(=O)[C@H](Cc1ccccc1)NC(=O)[C@H](CCCCN)NC(=O)[C@@H](CCCNC(=N)N)NC(=O)[C@@H](CCCNC(=N)N)NC(=O)[C@@H](CCCNC(=N)N)NC(=O)[C@@H](CCCNC(=N)N)NC(=O)[C@@H](CCCNC(=N)N)NC(=O)[C@@H](CCCNC(=N)N)NC(=O)[C@@H](CCCNC(=N)N)NC(=O)[C@@H](CCCNC(=N)N)NC(=O)[C@H](N)CCCNC(=N)N)C(C)C)[C@@H](C)O)C(=O)N[C@@H](C)C(=O)N[C@@H](Cc1ccccc1)C(=O)N[C@H](C(=O)N[C@@H](CC(N)=O)C(=O)O)C(C)C [WT ARF 26-44 peptide, rrrrrrrrrKFVRSRRPRTASCALAFVN] (H-[dR][dR][dR][dR][dR][dR][dR][dR][dR]KFVRSRRPRTASCALAFVN-OH; N-terminus and C-terminus assumed) | no pro-apoptotic staining in the adjacent normal liver tissue | neither in the surrounding normal liver tissue | not detected in adjacent normal liver tissue | –
KFVRSRRPRTASCALAFVN (listed as Homo sapiens) [p19ARF26-44 peptide, amino acids 26-44 of the p19ARF tumor suppressor protein] | – | – | – | sufficient in inhibiting FoxM1B activity

— patent US20100056441A1, “Method for Inhibiting Angiogenesis” (priority 2006, published 2010)
